Data: US12436145B2, “Cryptic antibiotics and methods for detecting bioactive cryptic metabolites” (THE TRUSTEES OF PRINCETON UNIVERSITY, priority 2019, dated 2025)
≈ marks a conversion by molar mass, not a printed value. Read-outs that look alike come from different tables or passages of the source. Peptide text beside a SMILES is read from it.

Columns and labels:
S. lavendulae [1] = assay: Elicitor screening, supernatants in disc diffusion assays against B. subtilis; format: cell-based, Streptomyces lavendulae; conditions: S. lavendulae grown with ~33 μM elicitor, 5 days; supernatant on B. subtilis disc diffusion
Method: (§1) For the high-throughput-elicitor screening portion of this example, the procedure is described for S. hiroshimensis. An identical procedure was used for S. lavendulae and A. keratiniphila. […] The culture was incubated at 30° C./250 rpm for two days. Then, the mycelia cell mass was pelleted by centrifugation, the supernatant discarded, and a stock solution of 100 mg/mL cell mass was generated in R4 medium. The stock solution was used to prepare the appropriate volume (see below) of R4 medium containing 0.5 mg/mL mycelia cell mass in a 250 mL Erlenmeyer flask. The suspension was homogenized by stirring at room temperature. Subsequently, a MultiFlow Dispenser (from Biotek, Inc.) was used to dispense 150 μL of the suspension into each well of six sterile round bottom 96 well plates (from Corning, Inc.). Candidate elicitors were added from a commercially-available 502-member Natural Products Library (from Enzo Life Sciences, Inc.) using a CYBI-WELL™ automated liquid transfer robot (from CyBio AG). A volume of 0.5 μL was transferred from the compound library into each well to give a final concentration of ^˜33 μM. […]
(§2) The resulting agar plates were assessed visually, and subsequently examined visually for halos. To generate FIG. 2, the halo diameter, if any, was measured and categorized as none (n), weak (w), medium (m), or strong (s) inhibition. […]

A. keratiniphila [2] = assay: Elicitor screening, supernatants in liquid bioassay against E. coli; format: cell-based, Amycolatopsis kerathiniphila; conditions: A. keratiniphila grown with ~33 μM elicitor; supernatant on E. coli, OD600 nm
Method: (§3) For the high-throughput-elicitor screening portion of this example, the procedure is described for S. hiroshimensis. An identical procedure was used for S. lavendulae and A. keratiniphila. […] The culture was incubated at 30° C./250 rpm for two days. Then, the mycelia cell mass was pelleted by centrifugation, the supernatant discarded, and a stock solution of 100 mg/mL cell mass was generated in R4 medium. The stock solution was used to prepare the appropriate volume (see below) of R4 medium containing 0.5 mg/mL mycelia cell mass in a 250 mL Erlenmeyer flask. The suspension was homogenized by stirring at room temperature. Subsequently, a MultiFlow Dispenser (from Biotek, Inc.) was used to dispense 150 μL of the suspension into each well of six sterile round bottom 96 well plates (from Corning, Inc.). Candidate elicitors were added from a commercially-available 502-member Natural Products Library (from Enzo Life Sciences, Inc.) using a CYBI-WELL™ automated liquid transfer robot (from CyBio AG). A volume of 0.5 μL was transferred from the compound library into each well to give a final concentration of ^˜33 μM. Then each plate was covered with a BREATHE-EASY® sealing membrane (from MilliporeSigma) and cultured at 30° C./200 rpm for 5 days. Humidity was maintained in the shaker/incubator by incubating several flasks containing sterile water.
Assays against E. coli were also carried out. In this case, broader elicitation screens were conducted using a ˜500-member natural product library as the source of potential inducers. To increase the throughput of the assays, liquid bioassays were used. […]
From the elicitor plates, after culturing for 5 days, the plates were spun down in a 96-well plate centrifuge and the supernatants (10 μL) transferred to fresh 96-well assay plates, each well containing 100 μL LB-E. coli culture, with the E. coli cells inoculated to an initial OD600 nm OD600 nm of 0.002. The assay plates were cultured at 37° C./200 rpm overnight (10-12 h) and OD600 nm was then determined using a plate reader. […]

S. cebuensis [3] = assay: Elicitor screening, supernatants on E. coli cultures (OD600 nm); format: cell-based, Saccharopolyspora cebuensis; conditions: S. cebuensis grown with elicitor, supernatant on E. coli
Method: Wild-type S. cebuensis cultures were transferred to 96 well-plates and each well was robotically supplemented with a compound from a commercial small molecule library as a source of elicitors. […] To grow the cells, the plates were incubated for a defined period. […] The OD600 nm from each well was normalized and the % E. coli growth thus obtained was plotted as a function of each elicitor, allowing one to identify at least one elicitor corresponding to a second activity greater than the first activity.

E. coli = assay: In-house bioactivity assays of induced peaks and purified taylorflavins; format: cell-based
S. aureus ATCC 29213 = assay: Minimal inhibitory concentration (CLSI methods); format: cell-based
Method: (§4) Antibacterial assays with taylorflavin B (8) were carried out by Micromyx, LLC in accordance with methods from the Clinical and Laboratory Standards Institute. Minimal inhibitory concentrations were determined with the following strains: E. coli ATCC 25922, A. baumannii ATCC 19606, V. cholerae BAA-2163, N. gonorrhoeae ATCC 49226, P. aeruginosa ATCC 27853, K. pneumoniae MMX 214. S. aureus ATCC 29213, S. aureus MMX 2011, S. pneumoniae ATCC 49619, S. pyogenes MMX 6253, S. agalactiae MMX 6189, E. faecalis ATCC 29212, E. faecalis MMX 486, B. subtilis ATCC 6633, C. difficile ATCC 700057, B. fragilis ATCC 25285. Assays with taylorflavin A (7) were carried in-house according to the same protocols.

P. aeruginosa ATCC 27853 = assay: Minimal inhibitory concentration (CLSI methods); format: cell-based
Method: as §4

E. coli ATCC 25922 = assay: Minimal inhibitory concentration (CLSI methods); format: cell-based
Method: as §4

B. subtilis ATCC 6633 = assay: Minimal inhibitory concentration (CLSI methods); format: cell-based
Method: as §4

S. hiroshimensis [4] = assay: Elicitor screening, supernatants in liquid bioassay against E. coli; format: cell-based, Streptomyces hiroshimensis; conditions: S. hiroshimensis grown with ~33 μM elicitor; supernatant on E. coli, OD600 nm
Method: as §3, with “A volume of 0.5 μL was transferred from the compound library into each well to give a final concentration of ^˜33 μM.” left out
(§5) Assays against E. coli were also carried out. In this case, broader elicitation screens were conducted using a ˜500-member natural product library as the source of potential inducers. To increase the throughput of the assays, liquid bioassays were used. Rather than manually spotting each disc, the supernatants were screened by robotically transferring the supernatant from the elicitor plate to 96-well plates inoculated with the E. coli test strain.
(§6) From the elicitor plates, after culturing for 5 days, the plates were spun down in a 96-well plate centrifuge and the supernatants (10 μL) transferred to fresh 96-well assay plates, each well containing 100 μL LB-E. coli culture, with the E. coli cells inoculated to an initial OD600 nm OD600 nm of 0.002. The assay plates were cultured at 37° C./200 rpm overnight (10-12 h) and OD600 nm was then determined using a plate reader. To generate the plot in FIG. 3, the OD600 nm from each well was divided by the average OD600 nm from the entire plate and multiplied by 100 to give the percent growth. This normalization was carried out to account for plate-to-plate variation in growth rates.

S. lavendulae [5] = assay: as above; format: cell-based, Streptomyces lavendulae; conditions: S. lavendulae grown with ~33 μM elicitor; supernatant on E. coli, OD600 nm
Method: as §3, §5
as §6, with “rates. The results for the entire library are shown for S. lavendulae in FIG. 3. The two wells with the highest stimulation (301, 302) and highest inhibition (303, 304) are indicated.” for “rates.”

A. keratiniphila [6] = assay: Elicitor screening, supernatants in disc diffusion assays against B. subtilis; format: cell-based, Amycolatopsis kerathiniphila; conditions: A. keratiniphila grown with ~33 μM elicitor, 5 days; supernatant on B. subtilis disc diffusion
Method: as §1, §2

S. cebuensis [7] = assay: Validation of elicitors: agar disc diffusion assays; format: cell-based, Saccharopolyspora cebuensis; conditions: supernatants of S. cebuensis grown with elicitor
S. hiroshimensis [8] = assay: Elicitor screening, supernatants in disc diffusion assays against B. subtilis; format: cell-based, Streptomyces hiroshimensis; conditions: S. hiroshimensis grown with ~33 μM elicitor, 5 days; supernatant on B. subtilis disc diffusion
Method: as §3, with “Candidate elicitors were added from a commercially-available 502-member Natural Products Library (from Enzo Life Sciences, Inc.) using a CYBI-WELL™ automated liquid transfer robot (from CyBio AG). A volume of 0.5 μL was transferred from the compound library into each well to give a final concentration of ^˜33 μM.” left out

COc1ccc2c(=O)cc(-c3ccccc3OC)oc2c1 [7,2′-dimethoxyflavone]
induction of anti-B. subtilis metabolite(s) (S. lavendulae [1]): appeared to induce synthesis of anti-B. subtilis metabolite(s)

Cc1cn([C@H]2C[C@H](N=[N+]=[N-])[C@@H](CO)O2)c(=O)[nH]c1=O [AZT]
effect of elicitor-induced metabolome on E. coli growth (A. keratiniphila [2]): produce growth-inhibitory compounds

CCCCC(CC)COC(=O)CC(C(=O)OCC(CC)CCCC)S(=O)(=O)[O-].[Na+] (centres unmarked) [Na-docusate]
effect of elicitor-induced metabolome on E. coli growth (S. cebuensis [3]): stimulated E. coli growth best

Cn1nc2[nH]c(=O)n(C)c(=O)c2nc1=O [Taylorflavin A]
antibiotic activity / inhibition of E. coli growth (E. coli): antibiotic activity
minimal inhibitory concentration (MIC) (S. aureus ATCC 29213): >64 µg/mL
minimal inhibitory concentration (MIC) (S. aureus ATCC 29213; listed as taylorflavin A): Significantly weaker activity
minimal inhibitory concentration (MIC) (P. aeruginosa ATCC 27853): 25 µg/mL (≈ 120 µM)
minimal inhibitory concentration (MIC) (E. coli ATCC 25922): 37.5 µg/mL (≈ 179 µM)
minimal inhibitory concentration (MIC) (B. subtilis ATCC 6633): >64 µg/mL
minimal inhibitory concentration (MIC) (B. subtilis ATCC 6633; listed as taylorflavin A): Significantly weaker activity

CC(=O)OC1CN2CCC1CC2 (centres unmarked) [aceclidine]
effect of elicitor-induced metabolome on E. coli growth (S. hiroshimensis [4]): most enhanced E. coli growth

NC(=O)NC1NC(=O)NC1=O (centres unmarked) [allantoin]
effect of elicitor-induced metabolome on E. coli growth (S. lavendulae [5]): inhibited it

COC(=O)[C@H](Cc1ccccc1)NC(=O)[C@@H](N)CC(=O)O [aspartame] (H-Asp-Phe-OMe)
effect of elicitor-induced metabolome on E. coli growth (A. keratiniphila [2]): enhanced E. coli growth

CC(=O)O[C@H]1C(=O)[C@@]2(C)[C@H]([C@H](OC(=O)c3ccccc3)[C@]3(O)C[C@H](O)C(C)=C1C3(C)C)[C@]1(OC(C)=O)CO[C@@H]1C[C@@H]2O [baccatin III]
induction of zones of inhibition against B. subtilis (A. keratiniphila [6]): gave rise to zones of inhibition

C[C@H](CCC(=O)O)[C@H]1CC[C@H]2[C@@H]3[C@H](O)C[C@@H]4C[C@H](O)CC[C@]4(C)[C@H]3CC[C@]12C [chenodiol]
effect of elicitor-induced metabolome on E. coli growth (S. lavendulae [5]): support E. coli growth best

CN(C)CC[C@@H](c1ccc(Cl)cc1)c1ccccn1 [dexchlorpheniramine]
effect of elicitor-induced metabolome on E. coli growth (S. hiroshimensis [4]): most enhanced E. coli growth

NS(=O)(=O)c1cc(C(=O)O)c(NCc2ccco2)cc1Cl [furosemide]
halo of growth-inhibition in agar disc diffusion (S. cebuensis [7]): halo of growth-inhibition

N[C@H]1C(O)O[C@H](CO)[C@@H](O)[C@@H]1O (some centres unmarked) [glucosamine]
effect of elicitor-induced metabolome on E. coli growth (S. hiroshimensis [4]): most enhanced E. coli growth

O[C@H]1[C@H](O)[C@@H](O)[C@H](O)[C@@H](O)[C@H]1O [inositol]
effect of elicitor-induced metabolome on E. coli growth (S. lavendulae [5]): inhibited it

CC(C)NCC(O)c1ccc(O)c(O)c1 (centres unmarked) [isoproterenol]
effect of elicitor-induced metabolome on E. coli growth (S. lavendulae [5]): support E. coli growth best

COc1cc2oc(=O)ccc2cc1O [isoscopoletin]
induction of zones of inhibition against B. subtilis (A. keratiniphila [6]): gave rise to zones of inhibition

CC12CC3CC(C)(C1)CC(N)(C3)C2 [memantine]
effect of elicitor-induced metabolome on E. coli growth (S. hiroshimensis [4]): inhibited E. coli growth best

Cn1cc[nH]c1=S [methimazole]
effect of elicitor-induced metabolome on E. coli growth (S. cebuensis [3]): stimulated E. coli growth best

CC[C@@H](CO)NC(=O)[C@@H]1C=C2c3cccc4[nH]cc(c34)C[C@H]2N(C)C1 [methylergonovine]
effect of elicitor-induced metabolome on E. coli growth (S. hiroshimensis [4]): inhibited E. coli growth best

NC(=O)CN1CCCC1=O [piracetam]
effect of elicitor-induced metabolome on E. coli growth (S. cebuensis [3]): stimulated E. coli growth best

COc1cc(NC(C)CCCN)c2ncccc2c1 (centres unmarked) [primaquine]
induction of anti-B. subtilis metabolite(s) (S. hiroshimensis [8]): appeared to elicit anti-B. subtilis metabolite(s)

CCN(CC)CCOC(=O)c1ccc(N)cc1 [procaine]
induction of anti-B. subtilis metabolite(s) (S. hiroshimensis [8]): appeared to elicit anti-B. subtilis metabolite(s)
effect of elicitor-induced metabolome on E. coli growth (S. cebuensis [3]): inhibited it

CCN1CCCC1CNC(=O)c1cc(S(N)(=O)=O)ccc1OC (centres unmarked) [sulpiride]
effect of elicitor-induced metabolome on E. coli growth (A. keratiniphila [2]): produce growth-inhibitory compounds
